Measurements from PMC4501547, “Virtual and In Vitro Screens Reveal a Potential Pharmacophore that Avoids the Fibrillization of Aβ1–42” (PLoS ONE, 2015).

What was measured:
[1] = molecular target: T1, Aβ1–42 (amyloid β peptide, 42 residues) (Homo sapiens, UniProt P05067); assay: Thioflavin T fluorescence fibrillization assay; format: biochemical
T1 construct: gene APP; wild-type 42-residue peptide Abeta 1-42, cut from amyloid-beta precursor protein (APP770 residues 672-713); lyophilized, chloride salt, purchased from Calbiochem; non-fibrillated at start, aggregating during the assay
T1 sequence (P05067 672-713): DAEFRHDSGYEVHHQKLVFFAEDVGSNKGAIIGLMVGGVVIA

[2] = molecular target: T1, Aβ1–42 (amyloid β peptide, 42 residues); assay: Thioflavin T fluorescence fibrillization assay; format: biochemical; remark: listed apart in the source

Row | Structure (SMILES) | IC50 [1] | inhibition at 100 µM [2]
1 | CC(C(=O)Nc1ccc(C(C)(C)C)cc1)N1CCCC1 (stereo not drawn) [compound 5] | 1.28 µM | 
2 | O=C(COc1ccccc1)C1CCCN1 (stereo not drawn) [compound 8] | 34.4 µM | 
3 | COc1ccc(C2CNC(=O)C2)cc1OC1CCCC1 (stereo not drawn) [compound 14] |  | ~50%
